Data taken from patent publication US20160220527A1, “KINASE INHIBITORS FOR THE TREATMENT OF CANCER” (Pitney Pharmaceuticals Pty Limited, priority 2012, published 2016).

Experiments:
OVCAR-3 = test: SRB cell proliferation assay; assay type: cell-based; conditions: Table 3, AAD series, human epithelial ovarian cancer
Method: (§1) The human ovarian cancer cell lines OVCAR-3, SKOV-3 and A2780 and primary cells human umbilical vein endothelial cells (HUVEC) and all other cell lines were obtained from the American Type Culture Collection (ATCC) and maintained according to their instructions. Astrocytes and glioma cell lines were kindly gifted by Dr. Kerry McDonald from Lowy Cancer Research Centre, University of New South Wales, Australia.
(§2) Cell proliferation was assessed using the sulforhodamine B (SRB) assay. Cells seeded in 96-well plate (2,000-3,000 cell/well) were treated with MPL (0, 1, 5, 10, 25, 50 and 100 μmol/L) for 72 h. Cells were then fixed, washed and stained with 100 μl of 0.4% (w/v) SRB dissolved in 1% acetic acid. Unbound dye was removed by five washes with 1% acetic acid before air drying. Bound SRB was solubilized with 100 μl of 10 mM Tris base (pH 10.5) and the absorbance read at 570 nm. Exactly the same procedure was used to assess MPL-SO2. Both agents were dissolved in ethanol and diluted with media to give the final concentrations required for cell culture assays.

HUVEC = test: SRB cell proliferation assay; assay type: cell-based; conditions: Homo sapiens, Table 3, AAD series, human umbilical vein endothelial cells
Method: as §1, §2

A2780 = test: SRB cell proliferation assay; assay type: cell-based; conditions: Table 3, AAD series, human epithelial ovarian cancer
Method: as §1, §2

CHO = test: SRB cell proliferation assay; assay type: cell-based; conditions: Cricetulus griseus, Table 3, AAD series, Chinese hamster ovarian cells
Method: as §1, §2

cancer cell lines = test: SRB cell proliferation assay, comparison across cell lines; assay type: cell-based
Method: as §2

cancer cell-lines = test: Thymidine incorporation; assay type: cell-based
[1] = test system: cdk2, cdk4, cyclins A, and E; test: Western blot of cell cycle regulatory proteins; assay type: cell-based; conditions: MPL 0, 5, 10, 25 μM
Method: Protein expression in cells was determined using western blot analysis. After treatment with the indicated concentrations of MPL, cell lysates were prepared and probed with antibodies for cdk2, cdk4, cyclin A, cyclin E, PARP-1 (1:1000 dilutions; Cell Signalling Technology), and p53 (1:200 dilutions; Santa Cruz Biotechnology).

nicotinic receptors = test: MPL antiproliferative effect after pre-treatment with nicotinic agonists or antagonists; assay type: cell-based; conditions: 30 min pre-treatment, MPL 5 μM, 72 h
Method: Cells were pre-treated (30 min) with increasing concentrations of nicotine, carbachol or the receptor antagonists, atropine, mecamylamine, tubocurarine, and α-bungarotoxin. MPL (5 μM) was added and left in the cell culture incubator for 72 h. Each drug concentration was tested in quadruplicate and each experiment was repeated twice. Combine values (mean±SEM) are presented as % control.

OVCAR-3 or A2780 cells [2] = test: Cellular ATP levels and ADP/ATP ratio; assay type: cell-based, human
OVCAR-3 tumors = test: s.c. OVCAR-3 xenografts in nude mice; assay type: in vivo; conditions: for s.c. tumor growth: i.p., three times weekly
Method: Female nude mice (6 weeks old) were purchased from Biological Resources (University of New South Wales). Institutional animal ethics approvals covered procedures carried out on mice. Briefly, 2.5×10^6 log-phase growing OVCAR-3 cells were injected s.c. into the left flank of each mouse. Animals were weighed once weekly while their tumor volumes were determined twice weekly. Tumor growth was monitored by caliper measurements of orthogonal diameters, and the estimated tumor volume was calculated based on the formula […], where width is the shorter of the two orthogonal measurements. Based on institutional ethics approval, mice were euthanized before the tumor volume reached 500 mm3. Treatment was initiated on day 8 post tumor cell inoculation when mice were randomized and assigned to one of MPL or vehicle treated groups (5-6 mice per group). MPL was suspended in […] methylcellulose (0.5% w/v HPMC), sterilized by sonnicator and administered every other day either intraperitoneally (i.p) or orally as gavage (100 μL).
In the first pilot trial, the drug was administered i.p. at 2.5 or 25 mg/kg body weight, three times weekly for 2 weeks.
Following the outcome, in the next set of animals, the dose was increased to 25 and 50 mg/kg, three times weekly.
In the last (third) pilot study, mice were treated orally. The doses administered were 50 and 100 mg/kg three times weekly. In all these trials, mice in control groups received similar volume of the vehicle (0.5% HPMC). Tumor histology/immunohistochemistry was performed on formalin fixed tumor slices according to standard procedures.

[3] = mammals; cited from earlier work
U87 glioma cells = test: Autophagy (vacuole formation, LC3-II); assay type: cell-based; conditions: chemo-resistant U87 glioma cells
SW-876 = test: SRB cell proliferation assay; assay type: cell-based; conditions: SW-876, liposarcoma
Method: as §1, §2

HT-29 5m11 = test: SRB cell proliferation assay; assay type: cell-based; conditions: Homo sapiens; HT-29 5m11, colorectal cancer
Method: as §1, §2

MCF-7 = test: SRB cell proliferation assay; assay type: cell-based; conditions: Homo sapiens, MCF7, MCF-7, breast cancer, 72 h
Method: as §1, §2

HCT-116 = test: SRB cell proliferation assay; assay type: cell-based; conditions: Homo sapiens; HCT-116, colorectal cancer
Method: as §1, §2

HT-29 = test: SRB cell proliferation assay; assay type: cell-based; conditions: Homo sapiens; HT-29, colorectal cancer
Method: as §1, §2

HaCat = test: SRB cell proliferation assay; assay type: cell-based; conditions: Homo sapiens, keratinocyte
Method: as §1, §2

T98G = test: SRB cell proliferation assay; assay type: cell-based; conditions: Homo sapiens, glioma
Method: as §1, §2

LN-18 = test: SRB cell proliferation assay; assay type: cell-based; conditions: Homo sapiens; LN-18, glioma
Method: as §1, §2

OVCAR-3 or A2780 cells [4] = test: Cell cycle analysis by flow cytometry; assay type: cell-based, human; conditions: 25 μM MPL
Method: The effect of MPL on the cell cycle was determined using standard flow cytometry analysis protocols and procedures. Briefly, 0.7×10^6 million cells seeded in 25 cm^3 flasks and allowed to adhere overnight were treated with MPL for 24 or 48 h. Cells were collected with trypsinization and pooled with the cells floating in the medium. The cell suspensions were centrifuged, washed with PBS and fixed with methanol. Cells were then washed, resuspended in propodium iodide and ribonuclease A in PBS for 30 min at room temperature and analyzed by flow cytometry (Becton Dickinson FACSort).

OVCAR-3 or A2780 cells [5] = test: Colony formation assay; assay type: cell-based, human; conditions: higher concentrations of MPL; 72 h exposure, 2 weeks drug free
Method: For colony formation assay, 5×10^6 cells, such as OVCAR-3 or A2780 cells, were plated in 100 mm Petri dishes and allowed to attach overnight. Media were aspirated off and exponentially growing cells were incubated with various concentrations of MPL for 72 h. At this point, the medium was aspirated, the dishes were washed with PBS, and drug free medium was added to each plate. Media were changed twice weekly for 3 weeks. Following this, plates were gently washed with PBS and cells were fixed with 100% ethanol and stained with a 0.5% solution of filtered crystal violet. Colonies consisting of more than 50 cells were counted under an inverted microscope.
To determine the effect of MPL on cell integrity and capacity to rid itself from drug effects following drug exposure and withdrawal, cells were incubated with MPL (0, 5, 10, 25 μM) for 72 h, washed with PBS, transferred to agar plates, cultured with growth medium and incubated under standard conditions for 2 weeks. Cells were then fixed with 100% methanol and stained with 1% crystal violet. Colonies (Cluster of cells greater than 50) were counted under microscope (magnification ×5). Number of colonies counted for different experimental groups is expressed as percentage of the control (FIG. 14).

CC(C#N)(COc1ccccc1Cl)NC(=O)c1ccc(C(F)(F)F)cc1 (centres unmarked) [AAD 450]
IC50 (OVCAR-3): 23.9 ± 1.45 µM | IC50 (HUVEC): 96.5 µM | IC50 (A2780): 33.5 ± 8.5 µM | IC50 (CHO): 45.9 µM

C[C@](C#N)(COc1cc(C#N)ccc1C(F)(F)F)NC(=O)c1ccc(S(=O)(=O)C(F)(F)F)cc1 [MPL-SO2, monepantel sulphone]
potency compared with MPL (cancer cell lines; SRB proliferation assay): as potent as MPL

CC(C#N)(COc1cc(Cl)ccc1Cl)NC(=O)c1ccc(OC(F)(F)F)cc1 (centres unmarked) [AAD 1154]
IC50 (OVCAR-3): 20.5 ± 0.5 µM | IC50 (HUVEC): 61.1 µM | IC50 (A2780): 28 ± 4.5 µM | IC50 (CHO): 34.8 µM

C[C@](C#N)(COc1cc(C#N)ccc1C(F)(F)F)NC(=O)c1ccc(SC(F)(F)F)cc1 [MPL, N-[(1S)-1-cyano-2-(5-cyano-2-trifluoromethyl-phenoxy)-1-methyl-ethyl]-4-trifluoromethylsulfanyl-benzamide]
thymidine incorporation into the cell (DNA synthesis) (cancer cell-lines): Blocks thymidine incorporation | expression of cell cycle regulatory proteins [1]: lower levels of cdk2, cdk4, cyclins A, and E | MPL-induced inhibition of proliferation after pre-treatment with nicotinic agonists or antagonists (nicotinic receptors): neither positively nor negatively affected | cellular ratio of ADP/ATP (OVCAR-3 or A2780 cells [2]): reduces the cellular ratio of ADP/ATP | tumor tissue histology (OVCAR-3 tumors; MPL treated tumors from the in vivo trials): extensive necrosis | s.c. tumor growth (OVCAR-3 tumors; first trial, 25 mg/kg, female nude mice): particularly effective | s.c. tumor growth (OVCAR-3 tumors; second trial, 50 mg/kg compared with 25 mg/kg): more effective in retarding tumor growth | dosage well tolerated [3]: 1000 mg of MPL per kg of body weight per 24 hours | expression of LC3-II (autophagy) (U87 glioma cells): increased expression of LC3-II in a concentration-dependent manner | IC50 (SW-876): 14.6 µM | IC50 (HT-29 5m11): 10.4 µM | IC50 (MCF-7): 15.4 ± 1.1 µM | IC50 (HCT-116): 10.5 ± 0.02 µM | IC50 (HT-29): 5.86 ± 0.2 µM | IC50 (HaCat): 21.2 ± 3.2 µM | IC50 (T98G): 18.2 ± 0.61 µM | IC50 (LN-18): 9.38 ± 0.79 µM | sensitivity of chemo-resistant cell lines to antiproliferative action (cancer cell lines; ovarian chemo-resistant, glioma temozolomide resistant, breast cancer tamoxifen resistant cells): sensitive | percentage of cells in G2-M phase (OVCAR-3 or A2780 cells [4]): more than three times higher | clonogenic ability (OVCAR-3 or A2780 cells [5]): almost complete loss of clonogenic ability
